From ChEMBL document CHEMBL1201862, “PubChem BioAssay data set” (2004)
Calls of active or inactive are those of the source.

Experiments:
[1] = biological target: T1, Long-chain-fatty-acid--AMP ligase FadD28 (Mycobacterium tuberculosis, UniProt P9WQ59); experiment: Fluorescence polarization aasay to screen for inhibitors that compete for the binding of FadD28 to a bisubstrate Measured in Biochemical System Using Plate Reader - 2147-01_Inhibitor_Dose_CherryPick_Activity.; type: functional, Mycobacterium tuberculosis H37Rv
T1 sequence (P9WQ59 whole entry): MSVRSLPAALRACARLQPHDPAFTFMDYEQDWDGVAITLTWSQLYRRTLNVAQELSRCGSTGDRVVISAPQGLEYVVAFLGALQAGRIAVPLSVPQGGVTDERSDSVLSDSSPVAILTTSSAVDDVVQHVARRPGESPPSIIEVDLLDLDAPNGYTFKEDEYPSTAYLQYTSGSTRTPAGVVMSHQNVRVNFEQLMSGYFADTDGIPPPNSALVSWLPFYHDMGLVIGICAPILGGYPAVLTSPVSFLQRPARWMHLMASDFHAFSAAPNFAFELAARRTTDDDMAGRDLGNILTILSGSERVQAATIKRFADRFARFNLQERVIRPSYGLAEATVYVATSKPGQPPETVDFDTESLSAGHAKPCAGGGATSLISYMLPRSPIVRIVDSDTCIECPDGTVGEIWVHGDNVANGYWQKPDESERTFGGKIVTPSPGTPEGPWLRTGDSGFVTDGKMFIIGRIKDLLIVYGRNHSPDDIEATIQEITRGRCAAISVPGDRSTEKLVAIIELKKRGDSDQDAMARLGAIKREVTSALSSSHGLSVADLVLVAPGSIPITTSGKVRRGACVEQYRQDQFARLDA

[2] = biological target: T2, Microphthalmia-associated transcription factor (Homo sapiens, UniProt O75030); experiment: TRPM1 promoter luciferase signal decrease, dose response, MITF inhibitor project, cell-based, SK-MEL-5, cherry-picked, set 3 (AID 493073); type: functional
T2 sequence (O75030 whole entry): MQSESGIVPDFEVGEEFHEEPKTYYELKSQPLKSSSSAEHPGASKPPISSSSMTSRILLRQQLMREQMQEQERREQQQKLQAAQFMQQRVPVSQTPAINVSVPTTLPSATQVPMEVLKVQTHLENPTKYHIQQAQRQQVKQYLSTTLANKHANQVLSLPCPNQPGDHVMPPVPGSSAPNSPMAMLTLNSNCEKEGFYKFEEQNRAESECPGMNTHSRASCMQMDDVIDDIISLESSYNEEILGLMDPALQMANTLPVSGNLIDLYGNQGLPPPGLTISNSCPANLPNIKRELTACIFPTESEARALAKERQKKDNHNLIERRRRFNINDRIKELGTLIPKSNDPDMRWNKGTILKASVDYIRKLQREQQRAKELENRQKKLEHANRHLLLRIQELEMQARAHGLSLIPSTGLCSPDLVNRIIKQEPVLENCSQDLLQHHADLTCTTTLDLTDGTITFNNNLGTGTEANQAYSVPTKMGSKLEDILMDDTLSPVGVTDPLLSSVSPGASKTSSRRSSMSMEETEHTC

[3] = HepG2 cell cytotoxicity, dose response, cytotoxicity control for Shn3 inhibitor project, CellTiter-Glo, cherry-picked (AID 624134); type: functional, cell-based
[4] = ZM109 Env clade C HIV-1 fusion inhibitors, dose response, HeLa effector, CEM target cells, luciferase, cherry-pick (AID 652058); type: functional, cell-based
Cytochrome P450 1A2 = biological target: T3, Cytochrome P450 1A2 (Homo sapiens, UniProt P05177);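 also: PubChem cytochrome P450 panel assay, CYP1A2 panel member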
T3 sequence (P05177 whole entry): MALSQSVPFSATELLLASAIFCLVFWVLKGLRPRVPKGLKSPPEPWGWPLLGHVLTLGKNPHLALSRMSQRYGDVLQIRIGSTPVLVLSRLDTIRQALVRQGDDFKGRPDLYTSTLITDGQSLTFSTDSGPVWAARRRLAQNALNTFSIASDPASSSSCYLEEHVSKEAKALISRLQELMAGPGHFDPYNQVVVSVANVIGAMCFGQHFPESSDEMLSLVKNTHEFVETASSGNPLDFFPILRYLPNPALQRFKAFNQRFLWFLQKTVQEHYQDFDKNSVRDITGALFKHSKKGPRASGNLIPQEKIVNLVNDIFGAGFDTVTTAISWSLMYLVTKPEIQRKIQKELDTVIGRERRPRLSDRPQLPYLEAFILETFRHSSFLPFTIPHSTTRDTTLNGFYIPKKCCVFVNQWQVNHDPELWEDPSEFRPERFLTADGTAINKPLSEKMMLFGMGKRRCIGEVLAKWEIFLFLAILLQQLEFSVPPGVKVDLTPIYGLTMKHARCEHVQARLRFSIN

[5] = inhibitors of clade B AD8 Env fusion, dose response, cell-based, cherry-pick (AID 652062); type: functional;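 also: luciferase signal from cell-cell fusion driven by HIV-1 clade B AD8 Env; potency is for inhibitors of fusion seen as a drop in luminescence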
[6] = inhibitors of HIV Env-driven cell fusion, dose response, cherry-pick (AID 652057); type: functional, cell-based
[7] = CEM21 lymphoblast cell cytotoxicity, dose response, cytotoxicity control for viral fusion inhibitor project, CellTiter-Glo luminescence, cherry-picked (AID 652042); type: functional, cell-based;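 also: potency for signal decrease meaning cytotoxicity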
[8] = Shn3 3'UTR reporter inhibitors, dose response, cell-based, Clone20 osteoblasts, firefly luciferase, cherry-picked (AID 624132); type: functional;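 also: firefly luciferase luminescence from reporter carrying the Shn3 3'UTR in osteoblasts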
[9] = off-target signal loss in HeLa-CEM21 co-culture – HeLa F-luc CTL cells, cherry-picked, counter-screen for HIV-1 Env fusion inhibitor project, dose response (AID 652040); type: functional, cell-based;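 also: potency for signal decrease marking cytotoxic or nonspecific inhibition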
[10] = control 3'UTR Renilla luciferase suppression, dose response, counter-screen for Shn3 inhibitor project, cell-based, Clone20-Shn3RL, cherry-picked (AID 624133); type: functional
HEK293 [11] = experiment: cells; conditions: Homo sapiens
HEK293 [12] = experiment: cells; conditions: Homo sapiens; remark: listed apart in the source
[13] = biological target: T4, Rac GTPase-activating protein 1 (Homo sapiens, UniProt Q9H0H5); experiment: MgcRacGAP GTPase-activating activity inhibitors, confirmation, biochemical, ADP Hunter fluorescence, primary and confirmatory (AID 624330); type: functional
T4 sequence (Q9H0H5 whole entry): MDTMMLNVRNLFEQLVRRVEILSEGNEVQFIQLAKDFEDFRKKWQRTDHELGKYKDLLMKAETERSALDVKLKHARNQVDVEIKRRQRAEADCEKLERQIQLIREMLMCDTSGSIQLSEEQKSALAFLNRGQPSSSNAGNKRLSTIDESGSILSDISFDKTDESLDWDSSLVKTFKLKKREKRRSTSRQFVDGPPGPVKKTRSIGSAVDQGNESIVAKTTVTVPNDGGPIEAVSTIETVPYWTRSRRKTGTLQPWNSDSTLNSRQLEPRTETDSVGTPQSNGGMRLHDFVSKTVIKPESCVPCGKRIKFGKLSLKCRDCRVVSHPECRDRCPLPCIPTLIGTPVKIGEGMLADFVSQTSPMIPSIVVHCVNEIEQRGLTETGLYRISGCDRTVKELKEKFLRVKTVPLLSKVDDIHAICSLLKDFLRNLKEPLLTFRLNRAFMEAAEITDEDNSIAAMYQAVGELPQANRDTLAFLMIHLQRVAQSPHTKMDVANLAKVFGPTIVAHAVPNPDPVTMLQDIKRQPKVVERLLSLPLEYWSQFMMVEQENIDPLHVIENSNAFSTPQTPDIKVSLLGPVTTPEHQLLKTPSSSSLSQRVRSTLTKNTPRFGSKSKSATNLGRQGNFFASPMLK

[14] = biological target: T5, Small ubiquitin-related modifier 1 (Homo sapiens, UniProt P63165); experiment: inhibitors of SUMO1 peptide binding, dose response, biochemical, fluorescence polarization, uHTS hits (AID 624382); type: functional; conditions: read-out: IC50_Mean
T5 sequence (P63165 whole entry): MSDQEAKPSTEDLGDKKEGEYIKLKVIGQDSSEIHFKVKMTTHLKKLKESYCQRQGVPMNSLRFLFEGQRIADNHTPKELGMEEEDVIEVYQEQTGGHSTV

[15] = biological target: T5, Small ubiquitin-related modifier 1; experiment: inhibitors of SUMO1 partner interactions, dose response, biochemical, FRET (AID 624383); type: functional; conditions: read-out: IC50_Mean
[16] = inhibitors of intracellular T. cruzi replication, confirmation, NIH3T3 host cells, beta-gal luminescence (AID 2044); type: functional, cell-based;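 also: intracellular parasites grown in NIH/3T3 mouse fibroblasts as host cells; luminescent beta-galactosidase reporter signal from transgenic T. cruzi replicating inside host cells; inhibitors lower the luminescence signal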
[17] = HeLa cell cytotoxicity, dose response, cytotoxicity control for MgcRacGAP inhibitor project (AID 624300); type: functional
[18] = cytotoxicity toward NIH3T3 fibroblasts, dose response, counter-screen, cell-based, ATP luminescence, mouse fibroblasts (AID 2010); type: functional;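 also: cells exposed to compound for about 90 hours before reading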
[19] = biological target: T6, Sentrin-specific protease 8 (Homo sapiens, UniProt Q96LD8); type: functional
T6 sequence (Q96LD8 whole entry): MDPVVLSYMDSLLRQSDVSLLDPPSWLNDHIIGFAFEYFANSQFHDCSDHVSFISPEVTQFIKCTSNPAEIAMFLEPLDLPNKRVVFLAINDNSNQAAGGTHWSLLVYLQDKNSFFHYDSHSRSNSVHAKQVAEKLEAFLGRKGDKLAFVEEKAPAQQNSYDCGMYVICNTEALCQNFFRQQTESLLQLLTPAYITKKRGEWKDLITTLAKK

[20] = biological target: T6, Sentrin-specific protease 8; type: functional; remark: listed apart in the source
Streptococcus = experiment: Group A Streptococcus viability loss, dose response, counter-screen for streptokinase expression inhibitor project, luminescence, BacTiterGlo (AID 1915); type: functional, organism-based;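 also: potency for reduction of bacterial viability or growth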
[21] = test system: Streptococcus sp. 'group A'; experiment: growth inhibition of control SK(-) GAS strain, dose response, counter-screen for streptokinase expression inhibitor project, luminescence, kanamycin, BacTiterGlo, confirmation (AID 1900); type: functional, organism-based
Streptokinase A = biological target: T7, Streptokinase A (Streptococcus pyogenes serotype M1, UniProt P10520); experiment: S. pyogenes streptokinase expression inhibitors, potency, dose response, plasminogen activation absorbance, OD405 (AID 1914); type: functional, Streptococcus pyogenes M1 GAS;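 also: secreted streptokinase activity via plasminogen activation per viability signal from cell pellet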
T7 sequence (P10520 whole entry): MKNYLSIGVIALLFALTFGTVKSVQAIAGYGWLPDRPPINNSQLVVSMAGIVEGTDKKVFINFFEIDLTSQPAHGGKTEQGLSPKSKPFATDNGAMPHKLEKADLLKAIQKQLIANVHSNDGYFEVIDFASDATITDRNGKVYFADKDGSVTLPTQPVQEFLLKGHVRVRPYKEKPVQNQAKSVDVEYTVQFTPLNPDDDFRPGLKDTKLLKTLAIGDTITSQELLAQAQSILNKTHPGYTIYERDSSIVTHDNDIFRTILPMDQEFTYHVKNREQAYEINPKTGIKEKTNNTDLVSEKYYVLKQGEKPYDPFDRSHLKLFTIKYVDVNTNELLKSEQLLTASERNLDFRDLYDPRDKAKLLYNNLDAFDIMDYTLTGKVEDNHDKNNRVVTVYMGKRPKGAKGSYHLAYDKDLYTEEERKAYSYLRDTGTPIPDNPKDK

In the case of `O=C(O)c1cccc(N/N=C/c2ccc(OC(F)(F)F)cc2)c1`, the AC50 [1] is reported as 39.7 µM (active) and the AC50 [2] is reported as 5.95 µM (active).
For `O=C(Nc1ccc(Oc2ccccc2)cc1)C1CCN(c2c3c(nc4ncnn24)CCC3)CC1`, the AC50 [3] was 7.3 µM (active), the AC50 [4] was 9.59 µM (active) and the AC50 (Cytochrome P450 1A2) was 15.8 µM (inconclusive). For the same molecule, the AC50 [5] was 4.29 µM (active), the AC50 [6] was 3.83 µM (active) and the AC50 [7] was 42.7 µM (active). The AC50 [8] was 5.64 µM (active), the AC50 [9] was > 32 µM (inactive) and the AC50 [10] was 10.5 µM (active).
With `CCC(C)(C)NC(=O)C(NS(=O)(=O)c1cccs1)c1ccccc1` (configuration not stated) the AC50 [4] was 4.71 µM (active), the AC50 [5] was 5.84 µM (active) and the AC50 [6] was 4.25 µM (active). For the same molecule, the EC50 (HEK293 [11]) was > 59.6 µM (inactive), the EC50 (HEK293 [12]) was > 59.6 µM (inactive) and the AC50 [9] was 4.24 µM (active).
In the case of `NNc1ccc([N+](=O)[O-])c2n[nH]c(O)c12`, the IC50 [13] is reported as 76.8 µM (active), the IC50 [14] is reported as > 66.6 µM (inactive) and the IC50 [15] is reported as 5.04 µM (active).
For `COc1ccc(Br)cc1CNCCc1cccc(Cl)c1`, the IC50 [13] was 130 µM (active), the EC50 [16] was 1.12 µM (active) and the CC50 [17] was 100 µM (active). The EC50 [18] was > 60 µM (not active).
With `COc1cc(/C=N/NC(=O)CN(Cc2ccccc2)S(=O)(=O)c2ccc3c(c2)OCCO3)ccc1O` the IC50 [13] was 74.6 µM (active), the CC50 [17] was 100 µM (active) and the AC50 [1] was > 100 µM (inactive).
With `O=C(CCCn1c(=O)oc2ccccc21)N1CCc2ccccc2C1` the IC50 [19] was 8 µM (active) and the IC50 [20] was > 100 µM (inactive).
For `Cc1cccc(NC(=O)c2cc3n(n2)C(C(F)(F)F)CC(c2ccc4c(c2)OCO4)N3)c1` (configuration not stated), the EC50 (Streptococcus) was 139 µM (active), the AC50 [4] was 7.75 µM (active) and the EC50 [21] was 12.9 µM (active). For the same molecule, the AC50 [5] was 17 µM (active), the AC50 [6] was 7.49 µM (active) and the EC50 (Streptokinase A) was 28.7 µM (active). For the same molecule, the AC50 [7] was 61 µM (active) and the AC50 [9] was 4.41 µM (active).
